# Test results published in patent US8741884B2, “Compounds for the treatment of hepatitis C” (priority 2010, dated 2014).
# Tested on: HCV pseudoparticles (genotype 1a HCV E1 and E2 envelope, H77C isolate)
# Test: microbe, parasite or virus in culture
# Type: cell-based
# Details: Hepatitis C virus, Huh-7, 48 h, class symbol; HCV pseudoparticles genotype 1a (H77C), Huh7 cells, luciferase 2 days after infection, average of duplicates
row,SMILES,EC50
1,O=C(NCC1(CN2CCCC2)CC1)c1ccc2cc1OCCCNCCCOc1cccc(c1)CNc1nc(nc(OCC(F)(F)F)n1)N2 [Example 3025],0.1 to 100 nM
2,COC(=O)C(NC(=O)c1ccc2cc1OCCCCCCOc1ccc(cc1)CNc1nc(nc(OCC(F)(F)F)n1)N2)C1CCN(C(=O)OC(C)(C)C)C1 (stereo not drawn) [Example 1310],0.1 to 100 nM
3,O=C(O)c1ccc2cc1OCCCCCCOc1ccc(cc1)CNc1nc(nc(OCC(F)(F)F)n1)N2 [Example 1302],1000 to 50000 nM
4,CC(C)(C)OC(=O)N1CCCOc2cccc(c2)CNc2nc(nc(OCC(F)(F)F)n2)Nc2ccc(C(=O)NCC3(CN4CCCC4)CC3)c(c2)OCCC1 [Example 3024],100 to 1000 nM
5,O=C(NCC1(CN2CCCC2)CC1)c1ccc2cc1OCCCNCCCCCCCCNc1nc(nc(OCC(F)(F)F)n1)N2 [Example 5002],0.1 to 100 nM
6,O=C(NCC1CCNC1)c1ccc2cc1OCCCCCCOc1ccc(cc1)CNc1nc(nc(OCC(F)(F)F)n1)N2 (stereo not drawn) [Example 1501],0.1 to 100 nM
7,COC(=O)[C@H](CNC(=O)OC(C)(C)C)NC(=O)c1ccc2cc1OCCCCCCOc1ccc(cc1)CNc1nc(nc(OCC(F)(F)F)n1)N2 [Example 1321],0.1 to 100 nM
8,CN(C)CC(C)(C)CNC(=O)c1ccc2cc1OCCOCCOCCOc1ccc(cc1)CNc1nc(nc(OCC(F)(F)F)n1)N2 [Example 1011],0.1 to 100 nM
9,O=C(NCC1(CN2CCCC2)CC1)c1ccc2cc1OCCCCNCCCOc1ccc(cc1)CNc1nc(nc(OCC(F)(F)F)n1)N2 [Example 3017],0.1 to 100 nM
10,CC(C)(C)OC(=O)N1CCCC(C(NC(=O)c2ccc3cc2OCCOCCOCCOc2ccc(cc2)CNc2nc(nc(OCC(F)(F)F)n2)N3)C(=O)O)C1 (stereo not drawn) [Example 1605],0.1 to 100 nM
11,CC(C)NC(=O)N1CCCOc2ccc(cc2)CNc2nc(nc(OCC(F)(F)F)n2)Nc2ccc(C(=O)NCC3(CN4CCCC4)CC3)c(c2)OCCC1 [Example 3009],0.1 to 100 nM
12,CC(C)(C)OC(=O)N1CCCC1CNC(=O)c1ccc2cc1OCCCCCCOc1ccc(cc1)CNc1nc(nc(OCC(F)(F)F)n1)N2 (stereo not drawn) [Example 1306],0.1 to 100 nM
13,CN(C)CC(C)(C)CNC(=O)c1ccc2cc1OCCCCCOc1ccc(cc1)CNc1nc(nc(OCC(F)(F)F)n1)N2 [Example 1009],0.1 to 100 nM
14,CC(C)(C)OC(=O)N1C[C@H](C(=O)O)[C@H](NC(=O)c2ccc3cc2OCCCCCCOc2ccc(cc2)CNc2nc(nc(OCC(F)(F)F)n2)N3)C1 [Example 1558],0.1 to 100 nM
15,CC(C)(C)OC(=O)N1CCCC1CC(NC(=O)c1ccc2cc1OCCCCCCOc1ccc(cc1)CNc1nc(nc(OCC(F)(F)F)n1)N2)C(=O)O (stereo not drawn) [Example 1407],0.1 to 100 nM
16,CC(C)(C)NC(=O)N1CCCCOc2cc(ccc2C(=O)NCC2(CN3CCCC3)CC2)Nc2nc(nc(OCC(F)(F)F)n2)NCc2ccc(cc2)OCCC1 [Example 3018],0.1 to 100 nM
17,COC(=O)CNC(=O)c1ccc2cc1OCCCCCCCCOc1ccc(cc1)CNc1nc(nc(OCC(F)(F)F)n1)N2 [Example 1104],100 to 1000 nM
18,CC(C)C(=O)N1CCCCOc2cc(ccc2C(=O)NCC2(CN3CCCC3)CC2)Nc2nc(nc(OCC(F)(F)F)n2)NCc2ccc(cc2)OCCC1 [Example 3023],0.1 to 100 nM
19,CCNC(=O)N1CCCOc2ccc(cc2)CNc2nc(nc(OCC(F)(F)F)n2)Nc2ccc(C(=O)NCC3(CN4CCCC4)CC3)c(c2)OCCC1 [Example 3008],0.1 to 100 nM

row,SMILES,EC50
1,CC(C)(C)OC(=O)N1CCC(CNC(=O)c2ccc3cc2OCCCCCCOc2ccc(cc2)CNc2nc(nc(OCC(F)(F)F)n2)N3)C1 (stereo not drawn) [Example 1305],0.1 to 100 nM
2,N=C(N)NCCC[C@@H](NC(=O)c1ccc2cc1OCCOCCOCCOc1ccc(cc1)CNc1nc(nc(OCC(F)(F)F)n1)N2)C(=O)O [Example 1603],0.1 to 100 nM
3,FC(F)(F)COc1nc2nc(n1)NC1(CC1)c1ccc(cc1)OC/C=C/COc1cccc(c1)N2 [Example 2008],0.1 to 100 nM
4,CC(=O)NC[C@H](NC(=O)c1ccc2cc1OCCCCCCOc1ccc(cc1)CNc1nc(nc(OCC(F)(F)F)n1)N2)C(=O)O [Example 1711],0.1 to 100 nM
5,CN(C)CC(C)(C)CNC(=O)c1ccc2cc1OCCCCCCOc1cccc(c1)CNc1nc(nc(OCC(F)(F)F)n1)N2 [Example 1804],100 to 1000 nM
6,O=C(NCCC[C@H](NC(=O)c1ccc2cc1OCCCCCCOc1ccc(cc1)CNc1nc(nc(OCC(F)(F)F)n1)N2)C(=O)O)OCc1ccccc1 [Example 1413],0.1 to 100 nM
7,CC(C)(C)OC(=O)N1CCC(CNC(=O)c2ccc3cc2OCCCCCCOc2ccc(cc2)CNc2nc(nc(OCC(F)(F)F)n2)N3)(C(=O)O)CC1 [Example 1557],100 to 1000 nM
8,COC(=O)CC1CCN(C(=O)c2ccc3cc2OCCCCCCCCOc2ccc(cc2)CNc2nc(nc(OCC(F)(F)F)n2)N3)C1 (stereo not drawn) [Example 1103],1000 to 50000 nM
9,CC(C)(C)OC(=O)N1CCC(C(NC(=O)c2ccc3cc2OCCCCCCOc2ccc(cc2)CNc2nc(nc(OCC(F)(F)F)n2)N3)C(=O)O)CC1 (stereo not drawn) [Example 1406],0.1 to 100 nM
10,O=C(NC(C(=O)O)C1CCCNC1)c1ccc2cc1OCCCCCCOc1ccc(cc1)CNc1nc(nc(OCC(F)(F)F)n1)N2 (stereo not drawn) [Example 1552],0.1 to 100 nM
11,CCOC(=O)[C@@H]1CN(C(=O)OC(C)(C)C)C[C@H]1NC(=O)c1ccc2cc1OCCCCCCOc1ccc(cc1)CNc1nc(nc(OCC(F)(F)F)n1)N2 [Example 1308],0.1 to 100 nM
12,CNC(=O)NC[C@H](NC(=O)c1ccc2cc1OCCCCCCOc1ccc(cc1)CNc1nc(nc(OCC(F)(F)F)n1)N2)C(=O)O [Example 1707],0.1 to 100 nM
13,COC(=O)CCCNC(=O)c1ccc2cc1OCCCCCCCCOc1ccc(cc1)CNc1nc(nc(OCC(F)(F)F)n1)N2 [Example 1101],0.1 to 100 nM
14,N=C(N)CNC(=O)c1ccc2cc1OCCCCCCCCOc1ccc(cc1)CNc1nc(nc(OCC(F)(F)F)n1)N2 [Example 1107],0.1 to 100 nM
15,N=C(N)NCCC[C@H](NC(=O)c1ccc2cc1OCCCCCCOc1ccc(cc1)CNc1nc(nc(OCC(F)(F)F)n1)N2)C(=O)O [Example 1402],0.1 to 100 nM
16,CC(C)CN1CCCOc2ccc(cc2)CNc2nc(nc(OCC(F)(F)F)n2)Nc2ccc(C(=O)NCC3(CN4CCCC4)CC3)c(c2)OCCC1 [Example 3013],0.1 to 100 nM
17,CC(C)(C)OC(=O)NCC[C@H](NC(=O)c1ccc2cc1OCCCCCCOc1ccc(cc1)CNc1nc(nc(OCC(F)(F)F)n1)N2)C(=O)O [Example 1561],0.1 to 100 nM
18,CC(C)(C)OC(=O)N1CCCC(NC(=O)c2ccc3cc2OCCCCCCCCOc2ccc(cc2)CNc2nc(nc(OCC(F)(F)F)n2)N3)C1 (stereo not drawn) [Example 1012],0.1 to 100 nM
19,CC(C)(C)OC(=O)N[C@H](CCNC(=O)c1ccc2cc1OCCCCCCOc1ccc(cc1)CNc1nc(nc(OCC(F)(F)F)n1)N2)C(=O)O [Example 1412],0.1 to 100 nM

row,SMILES,EC50
1,COC(=O)c1ccc2cc1OCCCCCCOc1ccc(cc1)CNc1nc(nc(OCC(F)(F)F)n1)N2 [Example 1301],100 to 1000 nM
2,COC(=O)c1ccc2cc1OCCCCOc1cccc(c1)CNc1nc(nc(OCC(F)(F)F)n1)N2 [Example 1801],100 to 1000 nM
3,CN(C)CC(C)(C)CNC(=O)c1ccc2cc1OCCCCCCCOc1ccc(cc1)CNc1nc(nc(OCC(F)(F)F)n1)N2 [Example 1201],0.1 to 100 nM
4,COC(=O)CCNC(=O)c1ccc2cc1OCCCCCCCCOc1ccc(cc1)CNc1nc(nc(OCC(F)(F)F)n1)N2 [Example 1017],100 to 1000 nM
5,FC(F)(F)COc1nc2nc(n1)NC1(CC1)c1ccc(cc1)OCCCCOc1cccc(c1)N2 [Example 2009],0.1 to 100 nM
6,CN(C)CC(C)(C)CNC(=O)c1ccc2cc1OCCCCCCOc1ccc(cc1)CNc1nc(nc(OCC(F)(F)F)n1)N2 [Example 1202],0.1 to 100 nM
7,COC(=O)C(NC(=O)c1ccc2cc1OCCCCCCCCOc1ccc(cc1)CNc1nc(nc(OCC(F)(F)F)n1)N2)C1CCCN(C(=O)OC(C)(C)C)C1 (stereo not drawn) [Example 1106],0.1 to 100 nM
8,COC(=O)[C@H](CCNC(=O)OC(C)(C)C)NC(=O)c1ccc2cc1OCCCCCCOc1ccc(cc1)CNc1nc(nc(OCC(F)(F)F)n1)N2 [Example 1307],0.1 to 100 nM
9,CC(C)(C)OC(=O)NC[C@H](NC(=O)c1ccc2cc1OCCCCCCOc1ccc(cc1)CNc1nc(nc(OCC(F)(F)F)n1)N2)C(=O)O [Example 1560],0.1 to 100 nM
10,CC(C)(C)OC(=O)NC[C@H](NC(=O)c1ccc2cc1OCCOCCOCCOc1ccc(cc1)CNc1nc(nc(OCC(F)(F)F)n1)N2)C(=O)O [Example 1608],0.1 to 100 nM
11,CC(C)(C)OC(=O)NC1(C(=O)O)CCN(C(=O)c2ccc3cc2OCCCCCCCCOc2ccc(cc2)CNc2nc(nc(OCC(F)(F)F)n2)N3)C1 (stereo not drawn) [Example 1018],1000 to 50000 nM
12,O=C(CNC(=O)c1ccc2cc1OCCCCCCCCOc1ccc(cc1)CNc1nc(nc(OCC(F)(F)F)n1)N2)NS(=O)(=O)C1CC1 [Example 1133],100 to 1000 nM
13,CN(C)CC(C)(C)CNC(=O)c1ccc2cc1OCC=CCOc1ccc(cc1)CNc1nc(nc(OCC(F)(F)F)n1)N2 [Example 2007],100 to 1000 nM
14,CC(C)OC(=O)N1CCCOc2ccc(cc2)CNc2nc(nc(OCC(F)(F)F)n2)Nc2ccc(C(=O)NCC3(CN4CCCC4)CC3)c(c2)OCCC1 [Example 3006],0.1 to 100 nM
15,COC(=O)C(NC(=O)c1ccc2cc1OCCCCCCOc1ccc(cc1)CNc1nc(nc(OCC(F)(F)F)n1)N2)C1CCCN(C(=O)OC(C)(C)C)C1 (stereo not drawn) [Example 1304],0.1 to 100 nM
16,CCOC(=O)N1CCCCOc2cc(ccc2C(=O)NCC2(CN3CCCC3)CC2)Nc2nc(nc(OCC(F)(F)F)n2)NCc2ccc(cc2)OCCC1 [Example 3020],0.1 to 100 nM
17,COC(=O)[C@H](CNS(C)(=O)=O)NC(=O)c1ccc2cc1OCCCCCCOc1ccc(cc1)CNc1nc(nc(OCC(F)(F)F)n1)N2 [Example 1702],0.1 to 100 nM
18,COC(=O)[C@H](CCN)NC(=O)c1ccc2cc1OCCCCCCOc1ccc(cc1)CNc1nc(nc(OCC(F)(F)F)n1)N2 [Example 1502],0.1 to 100 nM
19,COC(=O)c1ccc2cc1OCCCCNCCCOc1ccc(cc1)CNc1nc(nc(OCC(F)(F)F)n1)N2 [Example 3015],0.1 to 100 nM

# Same assay, conditions: Hepatitis C virus, Huh-7, 48 h, numeric value; HCV pseudoparticles genotype 1a (H77C), Huh7 cells, luciferase 2 days after infection, average of duplicates
row,SMILES,EC50
1,CC(C)(C)OC(=O)N1CCCC(C(NC(=O)c2ccc3cc2OCCOCCOCCOc2ccc(cc2)CNc2nc(nc(OCC(F)(F)F)n2)N3)C(=O)O)C1 (stereo not drawn) [Example 1605],23 nM
2,CCNC(=O)N1CCCOc2ccc(cc2)CNc2nc(nc(OCC(F)(F)F)n2)Nc2ccc(C(=O)NCC3(CN4CCCC4)CC3)c(c2)OCCC1 [Example 3008],5.36 nM
3,CN(C)CC(C)(C)CNC(=O)c1ccc2cc1OCCCCCCOc1cccc(c1)CNc1nc(nc(OCC(F)(F)F)n1)N2 [Example 1804],239 nM
4,CC(C)(C)OC(=O)N[C@H](CCNC(=O)c1ccc2cc1OCCCCCCOc1ccc(cc1)CNc1nc(nc(OCC(F)(F)F)n1)N2)C(=O)O [Example 1412],24.8 nM
5,FC(F)(F)COc1nc2nc(n1)NC1(CC1)c1ccc(cc1)OCCCCOc1cccc(c1)N2 [Example 2009],18 nM
6,CC(C)(C)OC(=O)NC[C@H](NC(=O)c1ccc2cc1OCCOCCOCCOc1ccc(cc1)CNc1nc(nc(OCC(F)(F)F)n1)N2)C(=O)O [Example 1608],56.2 nM
7,CC(C)(C)OC(=O)NC1(C(=O)O)CCN(C(=O)c2ccc3cc2OCCCCCCCCOc2ccc(cc2)CNc2nc(nc(OCC(F)(F)F)n2)N3)C1 (stereo not drawn) [Example 1018],5640 nM
8,CN(C)CC(C)(C)CNC(=O)c1ccc2cc1OCC=CCOc1ccc(cc1)CNc1nc(nc(OCC(F)(F)F)n1)N2 [Example 2007],159 nM

# Same assay, conditions: read-out: EC50
row,SMILES,EC50
1,COC(=O)c1ccc2cc1OCCCC=CCCCOc1ccc(cc1)CNc1nc(nc(OCC(F)(F)F)n1)N2 [Example 1019],100 to 1000 nM
